In ChEMBL document CHEMBL1144693, “Botryolides A-E, decarestrictine analogues from a fungicolous Botryotrichum sp. (NRRL 38180)” (J Nat Prod, 2008):
Active and inactive are the calls of the source.

Assays:
Format in all cases: functional, organism-based
Candida albicans = assay: Antifungal activity against Candida albicans ATCC 14053 at 100 ug/disk
Fusarium verticillioides = assay: Antifungal activity against Fusarium verticillioides NRRL 25457 at 100 ug/disk
Bacillus subtilis = assay: Antibacterial activity against Bacillus subtilis ATCC 6051 at 100 ug/disk
Staphylococcus aureus = assay: Antibacterial activity against Staphylococcus aureus ATCC 25923 at 100 ug/disk
Aspergillus flavus = assay: Antifungal activity against Aspergillus flavus NRRL 6541 at 100 ug/disk

Measured: Activity

C[C@@H]1C[C@@H]2O[C@@H]2/C=C/[C@H](O)CC(=O)O1
inactive: all assays above

C[C@@H]1C[C@@H]2O[C@@H]2/C=C/[C@]2(CC(=O)O1)C[C@@H](O)C(=O)O2
inactive: Candida albicans | Bacillus subtilis | Staphylococcus aureus

C[C@@H]1C[C@H](O)C(=O)CCC(O)CC(=O)O1 (stereo partly drawn)
inactive: all assays above

C[C@@H]1C[C@@H]2O[C@@H]2[C@H]2O[C@@H]2[C@@H](O)CC(=O)O1
inactive: all assays above
